ChEMBL document CHEMBL1143144, “Antitumor studies. Part 4: Design, synthesis, antitumor activity, and molecular docking study of novel 2-substituted 2-deoxoflavin-5-oxides, 2-deoxoalloxazine-5-oxides, and their 5-deaza analogs” (Bioorg Med Chem, 2008)
In brackets after ≈: the same amount, converted by molar mass.

Legend:
CCRF-HSB-2 = experiment: Antitumor activity against human CCRF-HSB2 cells by MTT assay; format: functional, cell-based
KB = experiment: Antitumor activity against human KB cells by MTT assay; format: functional, cell-based

Compound | IC50 (CCRF-HSB-2) | IC50 (KB)
CSc1nc2nc3ccccc3cc2c(=O)[nH]1 | 23.2 µg/mL (≈ 95.4 µM) | 44.1 µg/mL (≈ 181 µM)
CSc1nc2n(C)c3c(C)cccc3[n+]([O-])c-2c(=O)n1 | 1.46 µg/mL (≈ 5.06 µM) | 0.61 µg/mL (≈ 2.12 µM)
COc1ccc2c(c1)[n+]([O-])c1c(=O)nc(SC)nc-1n2C | 9.84 µg/mL (≈ 32.3 µM) | 11 µg/mL (≈ 36.1 µM)
CSc1nc2n(C)c3ccccc3[n+]([O-])c-2c(=O)n1 | 1.56 µg/mL (≈ 5.69 µM) | 1.44 µg/mL (≈ 5.25 µM)
CNc1nc2n(C)c3ccccc3cc-2c(=O)n1 | 2.7 µg/mL (≈ 11.2 µM) | 14.5 µg/mL (≈ 60.3 µM)
CCn1c(SC)nc2nc3c(C)cc(C)cc3[n+]([O-])c2c1=O | 5.9 µg/mL (≈ 18.6 µM) | 10 µg/mL (≈ 31.6 µM)
Cc1ccc2c(c1)[n+]([O-])c1c(=O)nc(NCCO)nc-1n2C | 1.46 µg/mL (≈ 4.85 µM) | 1.7 µg/mL (≈ 5.64 µM)
CSc1nc2nc3ccccc3[n+]([O-])c2c(=O)n1C | 8.63 µg/mL (≈ 31.5 µM) | 9.31 µg/mL (≈ 33.9 µM)
CN(C)c1nc2nc3ccccc3nc2c(=O)[nH]1 | 51.2 µg/mL (≈ 212 µM) | 63.1 µg/mL (≈ 262 µM)
COc1ccc2nc3nc(N4CCOCC4)[nH]c(=O)c3nc2c1 | 41.4 µg/mL (≈ 132 µM) | 71.7 µg/mL (≈ 229 µM)
CSc1nc2n(C)c3ccc(Cl)cc3[n+]([O-])c-2c(=O)n1 | 6.66 µg/mL (≈ 21.6 µM) | 10.8 µg/mL (≈ 35 µM)
CCOC(=O)Cn1c(SC)nc2nc3ccccc3[n+]([O-])c2c1=O | 34.2 µg/mL (≈ 98.7 µM) | 54.8 µg/mL (≈ 158 µM)
CSc1nc2nc3ccc(C)cc3[n+]([O-])c2c(=O)[nH]1 | 5.86 µg/mL (≈ 21.4 µM) | 5.8 µg/mL (≈ 21.1 µM)
CSc1nc2nc3c(C)cc(C)cc3[n+]([O-])c2c(=O)[nH]1 | 6.29 µg/mL (≈ 21.8 µM) | 11.8 µg/mL (≈ 40.9 µM)
CCn1c2nc(NCC(C)C)nc(=O)c-2[n+]([O-])c2ccccc21 | 6 µg/mL (≈ 19.1 µM) | 8.1 µg/mL (≈ 25.8 µM)
Cn1c2nc(=O)[nH]c(=O)c-2nc2ccccc21 | 1.8 µg/mL (≈ 7.89 µM) | 2.1 µg/mL (≈ 9.2 µM)
CCn1c2nc(SC)nc(=O)c-2[n+]([O-])c2ccccc21 | 3.72 µg/mL (≈ 12.9 µM) | 8.19 µg/mL (≈ 28.4 µM)
COc1ccc2c(c1)[n+]([O-])c1c(=O)[nH]c(=O)nc-1n2C | 5.1 µg/mL (≈ 18.6 µM) | 6.2 µg/mL (≈ 22.6 µM)
Cc1ccc2c(c1)[n+]([O-])c1c(=O)nc(NC3CCCCC3)nc-1n2C | 7.1 µg/mL (≈ 20.9 µM) | 33.7 µg/mL (≈ 99.3 µM)
CSc1nc2nc3ccc(C)cc3[n+]([O-])c2c(=O)n1C | 7.74 µg/mL (≈ 26.8 µM) | 13.4 µg/mL (≈ 46.5 µM)

The remaining lines, values ahead:

IC50 (CCRF-HSB-2) | IC50 (KB) | Compound
10 µg/mL (≈ 32.9 µM) | 12.5 µg/mL (≈ 41.1 µM) | COc1ccc2c(c1)n(C)c1nc(SC)nc(=O)c-1[n+]2[O-]
17.1 µg/mL (≈ 59.3 µM) | 27.7 µg/mL (≈ 96.1 µM) | CSc1nc2n(C)c3ccc(C)cc3[n+]([O-])c-2c(=O)n1
1.57 µg/mL (≈ 6.48 µM) | 1.89 µg/mL (≈ 7.8 µM) | CCn1c2nc(=O)[nH]c(=O)c-2nc2ccccc21
4.11 µg/mL (≈ 14.2 µM) | 5.35 µg/mL (≈ 18.4 µM) | COc1ccc2nc3nc(SC)[nH]c(=O)c3[n+]([O-])c2c1
14.3 µg/mL (≈ 47.3 µM) | 30 µg/mL (≈ 99.2 µM) | CSc1nc2n(C)c3cc(C)c(C)cc3[n+]([O-])c-2c(=O)n1
1.74 µg/mL (≈ 6.76 µM) | 6.93 µg/mL (≈ 26.9 µM) | CNc1nc2n(C)c3ccccc3[n+]([O-])c-2c(=O)n1
6.77 µg/mL (≈ 26 µM) | 6.76 µg/mL (≈ 26 µM) | CSc1nc2nc3ccccc3[n+]([O-])c2c(=O)[nH]1
34.7 µg/mL (≈ 115 µM) | 46.3 µg/mL (≈ 153 µM) | CCn1c2nc(SC)nc(=O)c-2[n+]([O-])c2cc(C)ccc21
6.18 µg/mL (≈ 18.1 µM) | 27.6 µg/mL (≈ 80.9 µM) | COc1ccc2c(c1)[n+]([O-])c1c(=O)nc(N3CCCCC3)nc-1n2C
8.96 µg/mL (≈ 29.6 µM) | 14.2 µg/mL (≈ 47 µM) | CSc1nc2nc3c(C)cc(C)cc3[n+]([O-])c2c(=O)n1C
0.047 µg/mL (≈ 0.193 µM) | 0.23 µg/mL (≈ 0.946 µM) | Nc1ccn([C@@H]2O[C@H](CO)[C@@H](O)[C@@H]2O)c(=O)n1 [CYTARABINE]
